Laboratory results: US20040076968A1, “Method for detecting pre-disposition to hepatotoxicity” (priority 2000, published 2004)

Test system: UGT1A7 gene
Assay: Association of UGT1A7 polymorphisms with liver function abnormality in tolcapone-treated patients (case-control genotyping)
Format: in vivo, human
Text: Disease severity had already been controlled for by the original study inclusion criteria.
For all other single nucleotide polymorphisms (SNPs) discovery and genotyping was done by double-stranded DNA sequencing using an ABI capillary sequencer and Big Dye chemistry (ABI). The primers used to amplify all exons are shown below and were also used as sequencing primers. Publicly available genomic sequences were used as references for primer design. All polymorphisms were targeted with these pairs-of-primer sets:
Fourty nanograms of genomic DNA were PCR-amplified in 50 μl reactions using an automated PCR machine. Reaction conditions varied as follows. For the amplification of the UGT1A6-fragment conditions were as follows: 10 mM Tris pH 8.3, 50 mM KCl, 1.5 mM MgCl2, 0.2 mM of each dNTP, 0.4 μM of each primer and 1.5U Boehringer Taq Polymerase. The thermocycling protocol consisted of an initial incubation of 95° C. for 15 min. followed by 35 cycles of 94° C. for 1 min., 57° C. for 30 sec., 72° C. for 1 min., and one final extension step of 72° C. for 10 min. The UGT1A7-1 fragment was amplified using Qiagen PCR buffer with 1.5 mM MgCl2, 0.2 mM of each dNTP, 0.4 μM of each primer and 1.5U Boehringer Taq Polymerase. The thermocycling protocol was the same as for UGT1A6-fragment with one exception: the annealing temperature was 61° C. For UGT1A7-2 fragment PCR conditions were as follows: 150 mM Tris pH 8.5, 15 mM (NH4)2SO4, 3.5 mM MgCl2, 0.2 mM of each dNTP, 0.4 μM of each primer and 1.5U Qiagen Hot Start Taq Polymerase. Thermocycling was done using a touch-down PCR protocol. After an iniatial amplification of 95° C. for 10 min. followed 5 cycles of 95° C. for 1 min., 62° C. for 30 sec. (minus 0.5° C. per cycle), 72° C. for 1 min and thirty cycles of 95° C. for 1 min., 60° C. for 30 sec., 72° C. for 1 min. and a final extension step of 72° C. for 10 min. After PCR amplification fragments were purified using the Qiaquick PCR purification kit on a Biorobot 9600. Cycle sequencing was performed on an automated PCR machine using ABI Big Dye terminator chemistry according to the manufacturer's intruction with the following changes: 2.5-5 ng/100 bp of PCR product were mixed with 2 μl Big Dye terminatior mix, oligonucleotide primer concentration was 10 pmol, if necessary 5% DMSO was added to the reaction; the final reaction volume was 10 μl. Sequencing reactions were subjected to 28 cycles at 93° C. for 30 sec, 48° C. for 30 sec, and 58° C. for 120 sec., followed by an ethanol/NaOAc precipitation. After decanting the ethanol, samples were evaporated to dryness using a SpeedVac for 2 min. and were resuspended in 45 μl ultrapure water (MERCK, HPLC grade). […] were loaded on an ABI 3700 capillary sequencer using POP5 as a polymer. After sequencing, the polymorphism analyses were done using Polyphred software (licenced from University of Washington).
The patient samples were divided into two groups.
For each genotype, the following analyses were performed:
a) Analysis of the entire genotype: patients were classified according to the following three categories: homozygous 1/1 (two copies of allele 1 and no copies of allele 2), heterozygous 1/2 (one copy of allele 1 and one copy of allele 2) or homozygous 2/2 (no copies of allele 1 and two copies of allele 2). Analysis was conducted to assess whether there were differences in the proportion of case patients in each of these groups, compared with the proportion of control patients. The Cochran-Maentel-Hanszel (CMH) test was applied to the data presented in a 2-by-3 table (the two columns indicating presence or absence of liver function abnormality and the three rows indicating the three categories of the genotype).

Cc1ccc(C(=O)c2cc(O)c(O)c([N+](=O)[O-])c2)cc1 [tolcapone]
n (%) of patients (UGT1A7_197 C/G, Allele A Absent, Liver Function Abnormality Absent): 125 (46.5%)
n (%) of patients (UGT1A7_197 C/G, Allele A Absent, Liver Function Abnormality Present): 46 (34.6%)
n (%) of patients (UGT1A7_197 C/G, Allele A Present, Liver Function Abnormality Absent): 144 (53.5%)
n (%) of patients (UGT1A7_197 C/G, Allele A Present, Liver Function Abnormality Present): 87 (65.4%)
n (%) of patients (UGT1A7_197 C/G, Allele C Absent, Liver Function Abnormality Absent): 32 (11.9%)
n (%) of patients (UGT1A7_197 C/G, Allele C Absent, Liver Function Abnormality Present): 25 (18.8%)
n (%) of patients (UGT1A7_197 C/G, Allele C Present, Liver Function Abnormality Absent): 237 (88.1%)
n (%) of patients (UGT1A7_197 C/G, Allele C Present, Liver Function Abnormality Present): 108 (81.2%)
n (%) of patients (UGT1A7_197 C/G, Genotype Heterozygous A/C, Liver Function Abnormality Absent): 112 (41.6%)
n (%) of patients (UGT1A7_197 C/G, Genotype Heterozygous A/C, Liver Function Abnormality Present): 62 (46.6%)
n (%) of patients (UGT1A7_197 C/G, Genotype Homozygous A/A, Liver Function Abnormality Absent): 32 (11.9%)
n (%) of patients (UGT1A7_197 C/G, Genotype Homozygous A/A, Liver Function Abnormality Present): 25 (18.8%)
n (%) of patients (UGT1A7_197 C/G, Genotype Homozygous C/C, Liver Function Abnormality Absent): 125 (46.5%)
n (%) of patients (UGT1A7_197 C/G, Genotype Homozygous C/C, Liver Function Abnormality Present): 46 (34.6%)
n (%) of patients (UGT1A7_551 Asn129Lys, Allele G Absent, Liver Function Abnormality Absent): 49 (18.2%)
n (%) of patients (UGT1A7_551 Asn129Lys, Allele G Absent, Liver Function Abnormality Present): 14 (10.6%)
n (%) of patients (UGT1A7_551 Asn129Lys, Allele G Present, Liver Function Abnormality Absent): 220 (81.8%)
n (%) of patients (UGT1A7_551 Asn129Lys, Allele G Present, Liver Function Abnormality Present): 118 (89.4%)
n (%) of patients (UGT1A7_551 Asn129Lys, Allele T Absent, Liver Function Abnormality Absent): 96 (35.7%)
n (%) of patients (UGT1A7_551 Asn129Lys, Allele T Absent, Liver Function Abnormality Present): 59 (44.7%)
n (%) of patients (UGT1A7_551 Asn129Lys, Allele T Present, Liver Function Abnormality Absent): 173 (64.3%)
n (%) of patients (UGT1A7_551 Asn129Lys, Genotype Heterozygous G/T, Liver Function Abnormality Absent): 124 (46.1%)
n (%) of patients (UGT1A7_551 Asn129Lys, Genotype Heterozygous G/T, Liver Function Abnormality Present): 59 (44.7%)
n (%) of patients (UGT1A7_551 Asn129Lys, Genotype Homozygous G/G, Liver Function Abnormality Absent): 96 (35.7%)
n (%) of patients (UGT1A7_551 Asn129Lys, Genotype Homozygous G/G, Liver Function Abnormality Present): 59 (44.7%)
n (%) of patients (UGT1A7_551 Asn129Lys, Genotype Homozygous T/T, Liver Function Abnormality Absent): 49 (18.2%)
n (%) of patients (UGT1A7_551 Asn129Lys, Genotype Homozygous T/T, Liver Function Abnormality Present): 14 (10.6%)
n (%) of patients (UGT1A7_555 silent or Arg131Lys, Allele A Absent, Liver Function Abnormality Absent): 49 (18.2%)
n (%) of patients (UGT1A7_555 silent or Arg131Lys, Allele A Absent, Liver Function Abnormality Present): 14 (10.6%)
n (%) of patients (UGT1A7_555 silent or Arg131Lys, Allele A Present, Liver Function Abnormality Absent): 220 (81.8%)
n (%) of patients (UGT1A7_555 silent or Arg131Lys, Allele A Present, Liver Function Abnormality Present): 118 (89.4%)
n (%) of patients (UGT1A7_555 silent or Arg131Lys, Allele C Absent, Liver Function Abnormality Absent): 96 (35.7%)
n (%) of patients (UGT1A7_555 silent or Arg131Lys, Allele C Absent, Liver Function Abnormality Present): 58 (43.9%)
n (%) of patients (UGT1A7_555 silent or Arg131Lys, Allele C Present, Liver Function Abnormality Absent): 173 (64.3%)
n (%) of patients (UGT1A7_555 silent or Arg131Lys, Allele C Present, Liver Function Abnormality Present): 74 (56.1%)
n (%) of patients (UGT1A7_555 silent or Arg131Lys, Genotype Heterozygous A/C, Liver Function Abnormality Absent): 124 (46.1%)
n (%) of patients (UGT1A7_555 silent or Arg131Lys, Genotype Heterozygous A/C, Liver Function Abnormality Present): 60 (45.5%)
n (%) of patients (UGT1A7_555 silent or Arg131Lys, Genotype Homozygous A/A, Liver Function Abnormality Absent): 96 (35.7%)
n (%) of patients (UGT1A7_555 silent or Arg131Lys, Genotype Homozygous A/A, Liver Function Abnormality Present): 58 (43.9%)
n (%) of patients (UGT1A7_555 silent or Arg131Lys, Genotype Homozygous G/G, Liver Function Abnormality Absent): 49 (18.2%)
n (%) of patients (UGT1A7_555 silent or Arg131Lys, Genotype Homozygous G/G, Liver Function Abnormality Present): 14 (10.6%)
n (%) of patients (UGT1A7_556 Arg131Lys or Gln, Allele A Absent, Liver Function Abnormality Absent): 49 (18.3%)
n (%) of patients (UGT1A7_556 Arg131Lys or Gln, Allele A Absent, Liver Function Abnormality Present): 14 (10.6%)
n (%) of patients (UGT1A7_556 Arg131Lys or Gln, Allele A Present, Liver Function Abnormality Absent): 219 (81.7%)
n (%) of patients (UGT1A7_556 Arg131Lys or Gln, Allele A Present, Liver Function Abnormality Present): 118 (89.4%)
n (%) of patients (UGT1A7_556 Arg131Lys or Gln, Allele G Absent, Liver Function Abnormality Absent): 96 (35.8%)
n (%) of patients (UGT1A7_556 Arg131Lys or Gln, Allele G Absent, Liver Function Abnormality Present): 59 (44.7%)
n (%) of patients (UGT1A7_556 Arg131Lys or Gln, Allele G Present, Liver Function Abnormality Absent): 172 (64.2%)
n (%) of patients (UGT1A7_556 Arg131Lys or Gln, Allele G Present, Liver Function Abnormality Present): 73 (55.3%)
n (%) of patients (UGT1A7_556 Arg131Lys or Gln, Genotype Heterozygous A/G, Liver Function Abnormality Absent): 123 (45.9%)
n (%) of patients (UGT1A7_556 Arg131Lys or Gln, Genotype Heterozygous A/G, Liver Function Abnormality Present): 59 (44.7%)
n (%) of patients (UGT1A7_556 Arg131Lys or Gln, Genotype Homozygous A/A, Liver Function Abnormality Absent): 96 (35.8%)
n (%) of patients (UGT1A7_556 Arg131Lys or Gln, Genotype Homozygous A/A, Liver Function Abnormality Present): 44 (33.8%)
n (%) of patients (UGT1A7_556 Arg131Lys or Gln, Genotype Homozygous G/G, Liver Function Abnormality Absent): 49 (18.3%)
n (%) of patients (UGT1A7_556 Arg131Lys or Gln, Genotype Homozygous G/G, Liver Function Abnormality Present): 14 (10.6%)
n (%) of patients (UGT1A7_786 Trp208Arg, Allele G Absent, Liver Function Abnormality Absent): 124 (46.3%)
n (%) of patients (UGT1A7_786 Trp208Arg, Allele G Absent, Liver Function Abnormality Present): 46 (34.3%)
n (%) of patients (UGT1A7_786 Trp208Arg, Allele G Present, Liver Function Abnormality Absent): 144 (53.7%)
n (%) of patients (UGT1A7_786 Trp208Arg, Allele G Present, Liver Function Abnormality Present): 86 (65.7%)
n (%) of patients (UGT1A7_786 Trp208Arg, Allele T Absent, Liver Function Abnormality Absent): 30 (11.2%)
n (%) of patients (UGT1A7_786 Trp208Arg, Allele T Absent, Liver Function Abnormality Present): 26 (19.4%)
n (%) of patients (UGT1A7_786 Trp208Arg, Allele T Present, Liver Function Abnormality Absent): 238 (88.8%)
n (%) of patients (UGT1A7_786 Trp208Arg, Allele T Present, Liver Function Abnormality Present): 108 (80.6%)
n (%) of patients (UGT1A7_786 Trp208Arg, Genotype Heterozygous T/C, Liver Function Abnormality Absent): 114 (42.5%)
n (%) of patients (UGT1A7_786 Trp208Arg, Genotype Heterozygous T/C, Liver Function Abnormality Present): 62 (46.3%)
n (%) of patients (UGT1A7_786 Trp208Arg, Genotype Homozygous C/C, Liver Function Abnormality Absent): 30 (11.2%)
n (%) of patients (UGT1A7_786 Trp208Arg, Genotype Homozygous C/C, Liver Function Abnormality Present): 26 (19.4%)
n (%) of patients (UGT1A7_786 Trp208Arg, Genotype Homozygous T/T, Liver Function Abnormality Absent): 124 (46.3%)
n (%) of patients (UGT1A7_786 Trp208Arg, Genotype Homozygous T/T, Liver Function Abnormality Present): 46 (34.3%)
